Experimental data as given in PMC3068151 (PLoS ONE, 2011).

Columns and labels:
[1] = molecular target: T1, IRKβ (Homo sapiens, UniProt P06213); experiment: IRKβ activity, alpha Technology; type: cell-based; details: 100 µM, 100 nM insulin
T1 construct: in HepG2 or A431 cells, respectively; endogenous in cells; host or cells: HepG2 according to b24; A431 according to the order in the legend b55
Procedure: Cells were stimulated with 5 nM IGF1 or 100 nM insulin for 10 minutes, lysed and a fluorescence acceptor (alphaLISA protein A beads coated with anti-phospho-IRKβ or -IGFR1β) added for 2 hours. A fluorescence donor (streptavidin coupled-beads) coated with an antibody towards IRKβ or IGFR1β was incubated for 2 hours and the signal was measured at λex = 680 nm and λem = 500 nm and 600 nm using a microplate reader (EnVision, Perkin Elmer, Waltham, MA, USA).
These assays were performed at CEREP (Celle L'Evescault, France).
A, B) EGFR phosphorylation was induced by 30 ng/ml and 10 ng/ml EGF on PC3 (A) and HT29 (B) cells, respectively. […] Data are the means of two experiments ± st. err.

[2] = tested on: PC3, HT29 and T47D cells; experiment: MTT cell viability assay; type: cell-based, human; details: concentrations studied in phosphorylation studies; 2 hours incubation
Procedure: Cell viability was evaluated using the MTT colorimetric assay. Cells were plated in 96-well plates at a density of 10^5cells/ml and the day after treated with compounds or 0.5% DMSO for 2, 24, 48, or 72 hours. MTT was added at the final concentration of 1 mg/ml and incubated for 2 hours. The resulting formazan crystals were washed with PBS 100 µl/well and then solubilized with DMSO 200 µl/well. The absorbance was measured at 550 nm using an ELISA plate reader and the results were expressed as the ratio between absorbance of the cell treated with the compounds and untreated cells.
Supplementary file pone.0018128.s003.pdf: Figure S2 Cytotoxicity of bile acids on PC3, HT29 and T47D cells after 2 hours of incubation with the indicated compounds. Data are means±SEM. (PDF) Click here for additional data file.

[3] = tested on: PC3 cells; experiment: PC3 cell rounding assay; type: cell-based, human; details: for inhibition of ephrinA1-Fc induced PC3 cell rounding: 0.5 µg/ml ephrinA1-Fc, 30 minutes
Procedure: PC3 cells were grown on 12-well culture plates and starved overnight in Ham-F12 medium with 0.5% FBS. DMSO (final concentration 0.25%) or compounds were incubated for 20 min, before stimulation with 0.5 µg/ml ephrinA1-Fc or Fc for 30 minutes. During this time cells were observed and pictures were taken from the same field, before and after incubation, under a microscope (Leica, DM IL). Cell rounding was evaluated using ImageJ program.
Cell images were collected from the same field at time 0 and 30 minutes using a digital camera mounted on a Leica DM IL microscope. […] Cells, which rounded their shape and having an area less than 20% of the initial value, were scored as retracting. Data are the means of at least three independent experiments ± st. err. One-way ANOVA followed by Dunnet's post test was performed comparing ephrinA1-Fc+DMSO to all other columns. *, p<0.05, **,p<0.01.

[4] = molecular target: EphA2 (Homo sapiens, UniProt P29317); experiment: Phosphorylated-EphA2 sandwich ELISA in PC3 cell lysates; type: cell-based; parameters: their known ability to naturally express EphA2; endogenous in cells; host or cells: PC3 (A5); details: PC3 cells
EphA2, sequence (P29317 24-976): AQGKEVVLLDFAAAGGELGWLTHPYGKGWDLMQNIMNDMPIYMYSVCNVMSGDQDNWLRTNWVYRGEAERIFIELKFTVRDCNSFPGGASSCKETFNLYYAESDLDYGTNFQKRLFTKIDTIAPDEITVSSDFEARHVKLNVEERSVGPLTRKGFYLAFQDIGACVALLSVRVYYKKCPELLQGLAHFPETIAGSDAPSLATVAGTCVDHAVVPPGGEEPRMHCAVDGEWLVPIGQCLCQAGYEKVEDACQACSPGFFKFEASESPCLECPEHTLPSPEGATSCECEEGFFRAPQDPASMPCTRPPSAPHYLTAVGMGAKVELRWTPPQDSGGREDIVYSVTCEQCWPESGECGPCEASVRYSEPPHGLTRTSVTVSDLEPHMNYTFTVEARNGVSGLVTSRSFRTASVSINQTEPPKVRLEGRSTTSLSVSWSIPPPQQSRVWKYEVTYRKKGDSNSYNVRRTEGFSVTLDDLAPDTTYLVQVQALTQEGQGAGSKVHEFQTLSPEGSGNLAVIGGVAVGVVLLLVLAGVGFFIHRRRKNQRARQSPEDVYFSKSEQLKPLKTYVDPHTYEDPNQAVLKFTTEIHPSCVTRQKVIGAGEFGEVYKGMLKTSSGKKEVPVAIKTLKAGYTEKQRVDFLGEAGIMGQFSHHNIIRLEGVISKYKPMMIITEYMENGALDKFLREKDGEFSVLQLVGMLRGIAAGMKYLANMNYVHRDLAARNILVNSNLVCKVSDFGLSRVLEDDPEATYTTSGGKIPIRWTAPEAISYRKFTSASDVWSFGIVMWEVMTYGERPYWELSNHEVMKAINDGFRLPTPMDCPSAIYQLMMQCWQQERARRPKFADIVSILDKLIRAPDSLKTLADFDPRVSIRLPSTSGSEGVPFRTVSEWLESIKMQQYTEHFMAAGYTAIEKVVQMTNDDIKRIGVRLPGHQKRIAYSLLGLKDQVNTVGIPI
Procedure: Cells were seeded in 12-well plates at concentration of 10^5cells/ml in complete medium until they reached ∼40% confluence and serum starved overnight. The day after cells were treated with compounds under study, vehicle or standard drug, stimulated with the proper agonist, rinsed with sterile PBS and solubilized in lysis buffer. The lysates were resuspended and rocked at 4°C for 30 minutes and then centrifuged at 14000 xg for 5 minutes. The protein content of supernatant was measured with BCA protein assay kit (Thermo scientific), standardized to 200 µg/ml and transferred into a clean test tube ready to be used.
EphA2-, EphB4- and EGFR-phosphorylation were measured in cell lysates using DuoSet®IC Sandwich ELISA (RnD Systems, #DYC4056, #DYC4057 and #DYC1095, respectively) following manufacturer's protocol. […] The day after wells were washed and blocked for 1 hour at room temperature. After that, wells were washed and 100 µl/well of lysates were added at room temperature for 2 hours; wells were washed and incubated with Detection Antibody at room temperature for 2 hours.
EphB4 phosphorylation was stimulated with 3 µg/ml ephrinB2-Fc, preclustered with 0.3 µg/ml IgG Fc fragment on T47D cells (G, H, I). […] Phospho-EphA2/B4 levels are relative to ephrinA1/B2-Fc+DMSO. Data are the means of at least three independent experiment ± st. err. One-way ANOVA followed by Dunnet's post test was performed comparing Fc to all other columns for Fig A, D, G and ephrinA1-Fc+DMSO to all other columns for Fig B,C,E, F, H, I. *, p<0.05, **, p<0.01.

[5] = tested on: EphA kinases; experiment: ELISA displacement of biotinylated ephrinA1-Fc from immobilized EphA-Fc ectodomains; type: binding; details: biotinylated ephrinA1-Fc at KD concentration
Procedure: Our chemical collection (Table S1) was stocked in a 20 mM dimethyl sulfoxide (DMSO) solution and we performed binding assay at a concentration of 200 µM. Only compounds displacing more than 40% ephrinA1 from EphA2 receptor were considered for a full concentration-binding curve. […] The day after wells were washed three times with washing buffer (PBS +0.05% tween20, pH 7.5) and blocked with 300 µl of blocking solution (PBS +0.5% BSA) for 1 hour at 37°C. Compounds were added to the wells at proper concentration in 1% dimethyl sulfoxide (DMSO) and incubated at 37°C for 1 hour. Biotinylated ephrinA1-Fc (R&D BT602) was added at 37°C for 4 hours at 30 ng/ml in displacement assays or in a range from 1 to 2000 ng/ml in saturation studies. […] The reaction was stopped with 3N HCl 100 µl/well and the absorbance was measured using an ELISA plate reader (Sunrise, TECAN, Switzerland) at 450 nm.
Data are the means of at least three independent experiments ± st. err.

T1 sequence (P06213 763-1382 limits assumed): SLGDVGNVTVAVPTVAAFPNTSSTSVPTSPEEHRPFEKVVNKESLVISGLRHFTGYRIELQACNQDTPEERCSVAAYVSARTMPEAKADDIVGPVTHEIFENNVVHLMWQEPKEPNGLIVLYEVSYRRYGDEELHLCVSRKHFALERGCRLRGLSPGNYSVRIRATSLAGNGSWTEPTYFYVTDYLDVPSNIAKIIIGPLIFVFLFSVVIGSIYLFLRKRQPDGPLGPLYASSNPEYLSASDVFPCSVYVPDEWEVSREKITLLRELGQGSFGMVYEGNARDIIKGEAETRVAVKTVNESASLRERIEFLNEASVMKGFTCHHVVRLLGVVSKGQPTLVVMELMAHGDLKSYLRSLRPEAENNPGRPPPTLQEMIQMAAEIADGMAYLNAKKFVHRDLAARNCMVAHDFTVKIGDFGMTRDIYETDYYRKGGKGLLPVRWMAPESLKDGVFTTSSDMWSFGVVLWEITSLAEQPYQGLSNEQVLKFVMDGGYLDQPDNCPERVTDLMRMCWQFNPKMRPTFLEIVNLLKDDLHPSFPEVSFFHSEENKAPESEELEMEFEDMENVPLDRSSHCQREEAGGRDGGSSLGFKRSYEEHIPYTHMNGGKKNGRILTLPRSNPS
T1 sequence (P06213 28-758 partner limits assumed): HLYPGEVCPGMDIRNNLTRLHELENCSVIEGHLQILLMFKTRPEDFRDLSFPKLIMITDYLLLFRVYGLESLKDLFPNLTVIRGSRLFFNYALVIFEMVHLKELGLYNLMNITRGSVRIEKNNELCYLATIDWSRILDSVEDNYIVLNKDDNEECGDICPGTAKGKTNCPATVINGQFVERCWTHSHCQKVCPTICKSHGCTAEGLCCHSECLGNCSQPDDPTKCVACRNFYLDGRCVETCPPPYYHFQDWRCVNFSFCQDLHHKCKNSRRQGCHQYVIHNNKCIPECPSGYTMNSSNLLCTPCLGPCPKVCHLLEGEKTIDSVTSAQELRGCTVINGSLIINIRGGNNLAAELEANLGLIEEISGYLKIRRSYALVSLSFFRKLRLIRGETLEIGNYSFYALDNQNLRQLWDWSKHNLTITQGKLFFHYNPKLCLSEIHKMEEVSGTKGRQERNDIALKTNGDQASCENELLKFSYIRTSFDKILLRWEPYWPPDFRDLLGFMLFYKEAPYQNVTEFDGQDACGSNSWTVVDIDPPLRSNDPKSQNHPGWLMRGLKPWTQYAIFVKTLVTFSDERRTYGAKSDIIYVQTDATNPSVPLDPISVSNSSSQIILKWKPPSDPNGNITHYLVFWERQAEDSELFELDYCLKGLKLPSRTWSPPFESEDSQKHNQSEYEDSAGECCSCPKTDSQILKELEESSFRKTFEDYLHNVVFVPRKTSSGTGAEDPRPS

C[C@H](CCC(=O)O)[C@H]1CC[C@H]2[C@@H]3CC[C@@H]4C[C@H](O)CC[C@]4(C)[C@H]3CC[C@]12C [LCA, lithocholic acid]
effect on IRKβ activity as agonist or antagonist [1]: failed to affect activity
toxicity (MTT) [2]: devoid of any toxicity
inhibition of ephrinA1-Fc induced PC3 cell rounding ([3]; 10 µM): inactive
inhibition of ephrinA1-Fc induced PC3 cell rounding ([3]; 100 µM): blocked cell rounding
changes in PC3 cell morphology by compound alone ([3]; incubated with Fc for 30 minutes): Neither DMSO 0.25% nor LCA alone induced changes in cell morphology
inhibition of EphA2 phosphorylation ([4]; 10 µM): subthreshold
inhibition of EphA2 phosphorylation ([4]; 100 µM): inhibiting completely
displacement of ephrin-A1-Fc ectodomain from immobilized EphA-Fc ectodomains [5]: dose-dependently displaced
